{"source": "patent US5308869A", "about": "“Substituted amidines having high binding to the sigma receptor and the use thereof” (priority 1992, dated 1994)", "key": {"sigma receptor [1]": {"target": "sigma receptor", "assay": "Sigma receptor binding assay, [^3 H]DTG, guinea pig brain membrane homogenates", "conditions": "guinea pig brain membranes; for IC50: read-out: IC50 vs [^3 H]DTG (MEAN), […] [^3 H]DTG, pH 7.4, 90 minutes at room temperature, mean with SEM and n in own columns; for Binding to / selectivity at [^3 H]DTG-labelled sigma sites: drug specificity profile"}, "sigma binding site": {"test_system": "sigma binding site", "conditions": "cited from earlier work"}, "mu receptors": {"test_system": "mu receptors", "conditions": "cited from earlier work"}, "kappa receptors": {"test_system": "kappa receptors", "conditions": "cited from earlier work"}, "adrenergic sites": {"test_system": "adrenergic sites", "conditions": "cited from earlier work"}, "rats": {"test_system": "rats", "conditions": "rat, in vivo; cited from earlier work"}, "[2]": {"test_system": "dopamine-stimulated CAMP production", "conditions": "in vitro; cited from earlier work"}, "histaminergic sites": {"test_system": "histaminergic sites", "conditions": "cited from earlier work"}, "[3]": {"test_system": "D2 class of striatal dopamine receptors", "conditions": "rat striatum; cited from earlier work"}, "muscarinic sites": {"test_system": "muscarinic sites", "conditions": "cited from earlier work"}, "[4]": {"test_system": "D1 subclass of dopamine receptors", "conditions": "cited from earlier work"}, "[5]": {"test_system": "[^3 H]spiperone-labeled D2 site in striatum", "conditions": "chronic administration (20 days) to rats; cited from earlier work"}, "sigma receptor [6]": {"test_system": "sigma receptor", "conditions": "cited from earlier work"}, "cholinergic sites": {"test_system": "cholinergic sites", "conditions": "cited from earlier work"}, "rhesus monkeys": {"test_system": "rhesus monkeys", "conditions": "introduction of foreign objects into cages; cited from earlier work"}, "[7]": {"test_system": "apomorphine-induced mesolimbic behaviors", "conditions": "without altering intensity of stereotypic behaviors; cited from earlier work"}, "dopamine synthesis": {"test_system": "dopamine synthesis", "conditions": "cited from earlier work"}, "sigma receptor [8]": {"test_system": "sigma receptor", "conditions": "cited from earlier work", "remark": "listed apart in the source"}, "[9]": {"test_system": "dopamine-stimulated production of CAMP", "conditions": "homogenates of rat striatum and olfactory tubercle; cited from earlier work"}, "[10]": {"conditions": "humans; cited from earlier work"}, "[11]": {"conditions": "in vivo; cited from earlier work"}, "sigma sites": {"test_system": "sigma sites", "conditions": "rat brain membrane; cited from earlier work"}}, "data": [{"smiles": "CC(=NC1CCCCC1)NC12CC3CC(CC(C3)C1)C2", "note": "[N-(Adamantan-1-yl)-N'-(cyclohexyl)acetamidine]", "values": [{"measurement": "IC50", "setting": "sigma receptor [1]", "value": 71.9, "unit": "nM"}]}, {"smiles": "CC(=Nc1ccccc1C)NC1CC2CCC1C2", "note": "(centres unmarked) [N-Exonorbornyl-N'-(2-methylphenyl)acetamidine]", "values": [{"measurement": "IC50", "setting": "sigma receptor [1]", "value": 9.32, "unit": "nM"}]}, {"smiles": "CC(=NC1CCCCC1)Nc1ccccc1C", "note": "[N-(o-Methylphenyl)-N'-(cyclohexyl)acetamidine]", "values": [{"measurement": "IC50", "setting": "sigma receptor [1]", "value": 9.01, "unit": "nM"}]}, {"smiles": "O=C(CCCN1CCC(O)(c2ccc(Cl)cc2)CC1)c1ccc(F)cc1", "note": "[haloperidol]", "values": [{"measurement": "Drug selectivity profile of sigma binding site", "setting": "sigma binding site", "value": "high affinity"}, {"measurement": "Binding to / selectivity at [^3 H]DTG-labelled sigma sites", "setting": "sigma receptor [1]", "value": "high affinity"}]}, {"smiles": "NCCc1ccc(O)c(O)c1", "note": "[dopamine]", "values": [{"measurement": "Drug selectivity profile of sigma binding site", "setting": "sigma binding site", "value": "insensitivity"}, {"measurement": "Binding to / selectivity at [^3 H]DTG-labelled sigma sites", "setting": "sigma receptor [1]", "value": "insensitivity"}]}, {"smiles": "CN1CCc2cccc3c2[C@H]1Cc1ccc(O)c(O)c1-3", "note": "[apomorphine]", "values": [{"measurement": "Drug selectivity profile of sigma binding site", "setting": "sigma binding site", "value": "insensitivity"}, {"measurement": "Binding to / selectivity at [^3 H]DTG-labelled sigma sites", "setting": "sigma receptor [1]", "value": "insensitivity"}]}, {"smiles": "C=CCN1CCC2(C)c3cc(O)ccc3CC1C2C", "note": "(single isomer, unassigned; (-)) [(-)-SKF-10,047, N-allyl-normetazocine]", "values": [{"measurement": "Binding to mu receptors", "setting": "mu receptors", "value": "labeled the mu and kappa receptors"}, {"measurement": "Drug selectivity profile of sigma binding site", "setting": "sigma binding site", "value": "not the sigma receptors"}, {"measurement": "Binding to kappa receptors", "setting": "kappa receptors", "value": "labeled the mu and kappa receptors"}]}, {"smiles": "C=CCN1CCC2(C)c3cc(O)ccc3CC1C2C", "note": "(single isomer, unassigned; (+)) [(+)[^3 H]SKF-10,047]", "values": [{"measurement": "Sigma site selectivity of radioligand", "setting": "sigma binding site", "value": "not selective for the sigma site"}]}, {"smiles": "C=CCN1CC[C@]23c4c5ccc(O)c4O[C@H]2C(=O)CC[C@@]3(O)[C@H]1C5", "note": "[naloxone]", "values": [{"measurement": "Drug selectivity profile of sigma binding site", "setting": "sigma binding site", "value": "insensitivity"}, {"measurement": "Binding to / selectivity at [^3 H]DTG-labelled sigma sites", "setting": "sigma receptor [1]", "value": "insensitivity"}]}, {"smiles": "CC(=Nc1ccc(Br)cc1C)Nc1ccc(Br)cc1C", "note": "[N,N'-Bis(4-bromo-2-tolyl)acetamidine]", "values": [{"measurement": "IC50", "setting": "sigma receptor [1]", "value": 25.8, "unit": "nM"}]}, {"smiles": "OC(CCCN1CCN(c2ncc(F)cn2)CC1)c1ccc(F)cc1", "note": "(centres unmarked) [BMY 14802]", "values": [{"measurement": "Binding to adrenergic sites", "setting": "adrenergic sites", "value": "does not bind"}, {"measurement": "Catalepsy in rats", "setting": "rats", "value": "did not cause catalepsy in rats"}, {"measurement": "Inhibition of dopamine-stimulated CAMP production", "setting": "[2]", "value": "does not inhibit dopamine-stimulated CAMP production"}, {"measurement": "Binding to histaminergic sites", "setting": "histaminergic sites", "value": "does not bind"}, {"measurement": "Inhibition of [^3 H]spiperone binding to D2 receptors", "setting": "[3]", "value": "does not inhibit the binding"}, {"measurement": "Binding to muscarinic sites", "setting": "muscarinic sites", "value": "does not bind"}, {"measurement": "Interaction with D1 subclass of dopamine receptors", "setting": "[4]", "value": "does not appear to interact"}, {"measurement": "Inhibition of [^3 H]SCH 23390 binding", "setting": "[4]; in vitro", "value": "does not inhibit"}, {"measurement": "Maximal density of [^3 H]spiperone-labeled D2 site in striatum", "setting": "[5]", "value": "did not increase the maximal density"}, {"measurement": "Sigma receptor binding affinity", "setting": "sigma receptor [6]", "value": "relatively high affinity"}, {"measurement": "Potency at inhibiting sigma binding, dextrorotatory vs levorotatory enantiomer", "setting": "sigma receptor [6]; dextrorotatory more potent than levorotatory enantiomer", "value": 10, "unit": "times"}, {"measurement": "Binding to cholinergic sites", "setting": "cholinergic sites", "value": "does not bind"}]}, {"smiles": "[3H]c1ccc(NC(=N)Nc2ccc([3H])cc2C)c(C)c1", "note": "[[^3 H]DTG, N,N'-di-(4-[^3 H]-2-methylphenyl)-guanidine]", "values": [{"measurement": "Binding to / selectivity at [^3 H]DTG-labelled sigma sites", "setting": "sigma receptor [1]", "value": "binds specifically and with high affinity to a single class of binding sites"}]}, {"smiles": "O=C1CC2(CCCC2)CC(=O)N1CCCCN1CCN(c2ncccn2)CC1", "note": "[Buspirone]", "values": [{"measurement": "Efficacy in taming of aggressive response", "setting": "rhesus monkeys", "value": "efficacy in a predictive animal model"}]}, {"smiles": "CCC12CCN(CC3CC3)C(C(=O)c3ccc(O)cc31)C2C", "note": "(single isomer, unassigned; (+)) [(+)[^3 H]-ethylketazocine]", "values": [{"measurement": "Sigma site selectivity of radioligand", "setting": "sigma binding site", "value": "not selective for the sigma site"}]}, {"smiles": "CCc1cccc(N=C(C)Nc2cccc3ccccc23)c1", "note": "[N-(1-naphthyl)-N'-(3-ethylphenyl)-acetamidine]", "values": [{"measurement": "IC50", "setting": "sigma receptor [1]", "value": 123, "unit": "nM"}]}, {"smiles": "C[C@@H]1CN(CCCn2c3ccccc3c3ccccc32)C[C@H](C)N1.Cl.Cl", "note": "[rimcazole, cis-9-[3-(3,5-dimethyl-1-piperazinyl)-propyl]carbazole dihydrochloride]", "values": [{"measurement": "Antagonism of apomorphine-induced mesolimbic behaviors", "setting": "[7]", "value": "antagonize apomorphine-induced mesolimbic behaviors selectively without altering the intensity of stereotypic behaviors"}, {"measurement": "Acceleration of rate of dopamine synthesis", "setting": "dopamine synthesis", "value": "does not accelerate the rate of dopamine synthesis"}, {"measurement": "Inhibition of specific binding of dextrorotatory tritiated SKF-10,047", "setting": "sigma receptor [8]", "value": "competitively inhibit the specific binding"}, {"measurement": "Effect on dopamine-stimulated production of CAMP", "setting": "[9]", "value": "does not affect dopamine-stimulated production of CAMP"}, {"measurement": "Extrapyramidal effects", "setting": "[10]", "value": "without extrapyramidal effects"}]}, {"smiles": "C[C@@H]1CN(CCCn2c3ccccc3c3ccccc32)C[C@H](C)N1", "note": "[9-[3-(3,5-cis-dimethylpiperazino)-propyl]carbazole]", "values": [{"measurement": "Anxiolytic activity", "setting": "[11]", "value": "anxiolytic activity"}]}, {"smiles": "CC(C)=CCN1CCC2(C)c3cc(O)ccc3CC1C2C", "note": "(single isomer, unassigned; (+)) [(+)pentazocine]", "values": [{"measurement": "Binding to / selectivity at [^3 H]DTG-labelled sigma sites", "setting": "sigma receptor [1]", "value": "stereoselectivity for dextrorotatory isomers"}]}, {"smiles": "CC(=Nc1ccccc1C(C)C)Nc1ccccc1C(C)C", "note": "[N,N'-bis(2-isopropylphenyl)acetamidine, N,N'-Bis(2-isopropylphenyl)acetamidine]", "values": [{"measurement": "IC50", "setting": "sigma receptor [1]", "value": 77.4, "unit": "nM"}]}, {"smiles": "CC(=Nc1ccccc1C)NC12CC3CC(CC(C3)C1)C2", "note": "[N-(Adamantan-1-yl)-N'-(o-methylphenyl)acetamidine]", "values": [{"measurement": "IC50", "setting": "sigma receptor [1]", "value": 7.27, "unit": "nM"}]}, {"smiles": "CN=C(C)Nc1ccccc1C", "note": "[N-(o-tolyl)-N'-methylacetamidine]", "values": [{"measurement": "IC50", "setting": "sigma receptor [1]", "value": 354, "unit": "nM"}]}, {"smiles": "C=CCN1CCC2(C)c3cc(O)ccc3CC1C2C", "note": "(single isomer, unassigned; (+)) [(+)SKF-10,047, N-allyl-normetazocine]", "values": [{"measurement": "Drug selectivity profile of sigma binding site", "setting": "sigma binding site", "value": "selectively label a sigma receptor"}, {"measurement": "Binding to / selectivity at [^3 H]DTG-labelled sigma sites", "setting": "sigma receptor [1]", "value": "stereoselectivity for dextrorotatory isomers"}]}, {"smiles": "CC(=Nc1ccccc1C)Nc1ccccc1C", "note": "[N,N'-bis(-o-tolyl)acetamidine, N,N'-Bis(o-methylphenyl)acetamidine]", "values": [{"measurement": "IC50", "setting": "sigma receptor [1]", "value": 15, "unit": "nM"}]}, {"smiles": "CCc1ccccc1N=C(C)Nc1ccccc1CC", "note": "[N,N'-bis-(o-ethylphenyl)acetamidine, N,N'-Bis(2-ethylphenyl)acetamidine]", "values": [{"measurement": "IC50", "setting": "sigma receptor [1]", "value": 36.9, "unit": "nM"}]}, {"smiles": "CCc1cccc(N=C(C)Nc2cccc(CC)c2)c1", "note": "[N,N'-bis(3-ethylphenyl)acetamidine, N,N'-Bis(3-ethylphenyl)acetamidine]", "values": [{"measurement": "IC50", "setting": "sigma receptor [1]", "value": 13, "unit": "nM"}]}, {"smiles": "CCCN1CCCC(c2cccc(O)c2)C1", "note": "(single isomer, unassigned; (+)) [(+)[^3 H]3-PPP, (+)[^3 H]3-(3-hydroxyphenyl)-N-(1-propyl)-piperidine]", "values": [{"measurement": "Binding to / selectivity at [^3 H]DTG-labelled sigma sites", "setting": "sigma receptor [1]", "value": "virtually identical receptor binding characteristics and drug selectivity profiles"}, {"measurement": "Selectivity for sigma sites", "setting": "sigma sites", "value": "selective for sigma sites"}]}, {"smiles": "CC(=NC12CC3CC(CC(C3)C1)C2)NC12CC3CC(CC(C3)C1)C2", "note": "[N,N'-bis(adamantan-1-yl)acetamidine, N,N'-Bis(adamantan-1-yl)acetamidine]", "values": [{"measurement": "IC50", "setting": "sigma receptor [1]", "value": 15.7, "unit": "nM"}]}, {"smiles": "CCc1cccc(N=C(C)Nc2cccc3ccccc23)c1", "note": "[N-(1-naphthyl)-N'-(m-ethylphenyl)-acetamidine]", "values": [{"measurement": "IC50", "setting": "sigma receptor [1]", "value": 2410, "unit": "nM"}]}, {"smiles": "CC(=Nc1cccc2ccccc12)Nc1cccc2ccccc12", "note": "[N,N'-bis(1-naphthyl)acetamidine]", "values": [{"measurement": "IC50", "setting": "sigma receptor [1]", "value": 169, "unit": "nM"}]}, {"smiles": "CC(=Nc1ccccc1C(C)C)Nc1cccc2ccccc12", "note": "[N-(1-naphthyl)-N'-(2-isopropylphenyl)-acetamidine]", "values": [{"measurement": "IC50", "setting": "sigma receptor [1]", "value": 118, "unit": "nM"}]}]}
